As a reminder, the IC50 is the midpoint of a concentration-inhibition curve.

The first assay addresses Human LDHA (Homo sapiens (Human), UniProt P00338). The assay can be described thus: human LDHA primary biochemical assay (resazurin/diaphorase coupled, fluorescence). Particulars: LDHA inhibitory activity, assay of Example 1; activity level classes. An excerpt: Test compounds were placed in a Greiner Bio-One (Monroe, N.C.) 1536-well black solid bottom assay plate. 200 millimolar (mM) Tris HCl, pH 7.4, 100 micromolar […] EDTA and 0.01% TWEEN-20™, final concentration, was used as the assay buffer. The LDHA reagent was 2 nanomolar (nM) Human LDHA (Meridian Life Science, Inc., Memphis, Tenn.), final concentration, in assay buffer.
On to `COC(=O)c1cnc(-n2nc(-c3ccccc3)c(Cc3ccc(S(N)(=O)=O)cc3)c2N)nc1C(F)(F)F` [Compound 190, methyl 2-(5-amino-3-phenyl-4-(4-sulfamoylbenzyl)-1H-pyrazol-1-yl)-4-(trifluoromethyl)pyrimidine-5-carboxylate], for which the IC50 was above 57000 nM. Molecule `Nc1c(Cc2ccc(S(N)(=O)=O)cc2)c(-c2ccccc2)nn1-c1ccc(C(=O)O)nn1` [Compound 191, 6-(5-amino-3-phenyl-4-(4-sulfamoylbenzyl)-1H-pyrazol-1-yl)pyridazine-3-carboxylic acid] displayed a half-maximal inhibitory concentration (IC50) above 57000 nM.

In the case of `NS(=O)(=O)c1ccc(Cc2cn(-c3nc(C(=O)O)cs3)c3ccc(-c4ccccc4F)cc23)cc1` [Compound 195, 2-(5-(2-fluorophenyl)-3-(4-sulfamoylbenzyl)-1H-indol-1-yl)thiazole-4-carboxylic acid], the IC50 is below 100 nM.

The same assay, now with this note: read-out: Inhibitory activity IC50.
`NS(=O)(=O)c1ccc(Cc2c(C3CC3)nn(-c3nc(C(=O)O)cs3)c2-c2cccc(-c3ccccc3)c2)c(F)c1` [Compound 182]: the IC50 lay in the range of 1000 to 57000 nM. With `NS(=O)(=O)c1ccc(Cc2c(C3CC3)nn(-c3nc(C(=O)O)cs3)c2-c2cccc(-c3ccccc3)c2)cc1` [Compound 184, 2-(5-([1,1′-biphenyl]-3-yl)-3-cyclopropyl-4-(4-sulfamoylbenzyl)-1H-pyrazol-1-yl)thiazole-4-carboxylic acid], the IC50 fell in the range of 1000 to 57000 nM. `NS(=O)(=O)c1ccc(Cc2c(-c3ccccc3)nn(-c3nc(C(=O)O)cs3)c2Cc2ccccc2)cc1` [Compound 185, 2-(5-benzyl-3-phenyl-4-(4-sulfamoylbenzyl)-1H-pyrazol-1-yl)thiazole-4-carboxylic acid]: the IC50 lay in the range of 100 to 1000 nM. For `NS(=O)(=O)c1ccc(Oc2c(C3CC3)nn(-c3nc(C(=O)O)cs3)c2-c2cccc(-c3ccccc3)c2)cc1` [Compound 186, 2-(5-([1,1′-biphenyl]-3-yl)-3-cyclopropyl-4-(4-sulfamoylphenoxy)-1H-pyrazol-1-yl)thiazole-4-carboxylic acid], the IC50 was in the range of 1000 to 57000 nM.

Turning to `NS(=O)(=O)c1ccc(Cc2c(CC3CC3)nn(-c3nc(C(=O)O)cs3)c2-c2ccccc2)cc1` [Compound 188, 2-(3-(cyclopropylmethyl)-5-phenyl-4-(4-sulfamoylbenzyl)-1H-pyrazol-1-yl)thiazole-4-carboxylic acid], the IC50 fell in the range of 100 to 1000 nM. With `NS(=O)(=O)c1ccc(Cc2cn(-c3nc(C(=O)O)cs3)c3cc(CN4CCOCC4)ccc23)cc1` [Compound 192, 2-(6-(morpholinomethyl)-3-(4-sulfamoylbenzyl)-1H-indol-1-yl)thiazole-4-carboxylic acid], the IC50 lay in the range of 100 to 1000 nM.

`NS(=O)(=O)c1ccc(Cc2cn(-c3nc(C(=O)O)cs3)c3cccc(CN4CCOCC4)c23)cc1` [Compound 193, 2-(4-(morpholinomethyl)-3-(4-sulfamoylbenzyl)-1H-indol-1-yl)thiazole-4-carboxylic acid]: the IC50 lay within 100 to 1000 nM. Consider `NS(=O)(=O)c1ccc(Cc2cn(-c3nc(C(=O)O)cs3)c3ccc(Cc4ccccc4F)cc23)cc1` [Compound 194, 2-(5-(2-fluorobenzyl)-3-(4-sulfamoylbenzyl)-1H-indol-1-yl)thiazole-4-carboxylic acid], for which the IC50 lay in the range of 100 to 1000 nM. The same measure, in the same setting: the result for `NS(=O)(=O)c1ccc(Cc2cn(-c3nc(C(=O)O)cs3)c3ccccc23)cc1` [Compound 196, 2-(3-(4-sulfamoylbenzyl)-1H-indol-1-yl)thiazole-4-carboxylic acid] reads 100 to 1000 nM.

With `NS(=O)(=O)c1ccc(Cc2cn(-c3nc(C(=O)O)cs3)c3cc(C(F)(F)F)ccc23)cc1` [Compound 197, 2-(3-(4-sulfamoylbenzyl)-6-(trifluoromethyl)-1H-indol-1-yl)thiazole-4-carboxylic acid], the IC50 lay in the range of 100 to 1000 nM.

On to `NS(=O)(=O)c1ccc(Cc2cn(-c3nc(C(=O)O)cs3)c3cccc(Cc4ccccc4F)c23)cc1` [Compound 198, 2-(4-(2-fluorobenzyl)-3-(4-sulfamoylbenzyl)-1H-indol-1-yl)thiazole-4-carboxylic acid], for which the IC50 was 100 to 1000 nM.

The record behind these values is patent US10961200B2, “Small molecule inhibitors of lactate dehydrogenase and methods of use thereof” (THE UNITED STATES OF AMERICA, AS REPRESENTED BY THE …, priority 2014, dated 2021).
